Measurements from patent publication US20120156715A1, “Environmental Sentinel Biomonitor System (ESB)” (priority 2010, published 2012).

Each compound was assayed on RTgill-W1 cells (assay: not given). Details: not given.
Type: cell-based, rainbow trout, Oncorhynchus mykiss
For `[N-]=[N+]=[N-]` [azide], the “change in impedance compared to controls” value was “significant decrease” and the “concentration at which the chemical is detected, relative to MEG and HLC” value (“concentration … relative to MEG and HLC” for short) was “between the MEG and the HLC”.
`O=S(=O)([O-])[O-].[Cu+2]` [copper, copper sulfate] was tested, and the “change in impedance compared to controls” value was “increased impedance” and the “concentration … relative to MEG and HLC” value was “between the MEG and the HLC”.
`O=C([O-])CF.[Na+]` [fluoroacetate, sodium fluoroacetate] was tested, and the “chips in which the chemical is detected” value was 3 out of 3 and the “concentration … relative to MEG and HLC” value was “above the HLC”.
`COP(=S)(OC)Oc1ccc([N+](=O)[O-])cc1` [methyl parathion] was tested, and the “change in impedance compared to controls” value was “significant decrease” and the “concentration … relative to MEG and HLC” value was “between the MEG and the HLC”.
With `CN1CCCC1c1cccnc1` (stereo not drawn) [nicotine] the “chips in which the chemical is detected” value was 3 out of 3 and the “concentration … relative to MEG and HLC” value was “above the HLC”.
For `Oc1ccccc1` [phenol], the “chips in which the chemical is detected” value was 3 out of 3 and the “concentration … relative to MEG and HLC” value was “above the HLC”.
For `Cc1ccccc1` [toluene], the “change in impedance compared to controls” value was “significant decrease” and the “concentration … relative to MEG and HLC” value was “between the MEG and the HLC”.
In the case of mercuric chloride [mercury], the “change in impedance compared to controls” value is reported as “significant decrease” and the “concentration … relative to MEG and HLC” value is reported as “between the MEG and the HLC”.
With sodium arsenite [arsenic] the “change in impedance compared to controls” value was “significant decrease” and the “concentration … relative to MEG and HLC” value was “between the MEG and the HLC”.

Same assay, conditions: at levels above the HLC
In the case of `C=CC#N` [Acrylonitrile, acrylonitrile], the “chips in which the chemical is detected” value is reported as 3 out of 3.
In the case of `CNC(=O)O/N=C/C(C)(C)SC` [aldicarb], the “chips in which the chemical is detected” value is reported as 3 out of 3.
With `COP(N)(=O)SC` (stereo not drawn) [methamidophos] the “chips in which the chemical is detected” value was 3 out of 3.
In the case of `C[n+]1ccc(-c2cc[n+](C)cc2)cc1` [paraquat, paraquat dichloride], the “chips in which the chemical is detected” value is reported as 3 out of 3.
In the case of `O=S(=O)([O-])[O-].[Tl+].[Tl+]` [thallium, thallium sulfate], the “chips in which the chemical is detected” value is reported as 3 out of 3.

Same assay, conditions: lowest concentration causing significant impedance change in at least ten consecutive time intervals over 60 minutes
`Oc1c(Cl)c(Cl)c(Cl)c(Cl)c1Cl` [pentachlorophenate, sodium pentachlorophenate] gave a detection level of 9.4 µM.

Same assay, conditions: one hour exposure; MEG = Military Exposure Guideline, HLC = Human Lethal Concentration; ECIS impedance
In the case of `C=CC#N` [Acrylonitrile, acrylonitrile], the “concentration … relative to MEG and HLC” value is reported as “above the HLC”.
In the case of `CNC(=O)O/N=C/C(C)(C)SC` [aldicarb], the “concentration … relative to MEG and HLC” value is reported as “above the HLC”.
`COP(N)(=O)SC` (stereo not drawn) [methamidophos] was tested, and the “concentration … relative to MEG and HLC” value was “above the HLC”.
`C[n+]1ccc(-c2cc[n+](C)cc2)cc1` [paraquat, paraquat dichloride] was tested, and the “concentration … relative to MEG and HLC” value was “above the HLC”.
For `Oc1c(Cl)c(Cl)c(Cl)c(Cl)c1Cl` [pentachlorophenate, sodium pentachlorophenate], the “concentration … relative to MEG and HLC” value was “between the MEG and the HLC”.
With `O=S(=O)([O-])[O-].[Tl+].[Tl+]` [thallium, thallium sulfate] the “concentration … relative to MEG and HLC” value was “above the HLC”.

Same assay, conditions: one hour exposure; p<0.001
With `Cl.N` [ammonia, ammonium chloride] the “change in impedance compared to controls” value was “significant decrease”.
`Oc1c(Cl)c(Cl)c(Cl)c(Cl)c1Cl` [pentachlorophenate, sodium pentachlorophenate] was tested, and the “change in impedance compared to controls” value was “significant decrease”.

These compounds were tested on RTgill-W1 cells (assay: Long-term storage testing of RTgill-W1 fluidic biochips with PCP exposure (ECIS)). Details: 9.4 μM; 1 hour and 4 hour exposures; one year storage at 6° C.
Type: cell-based, rainbow trout, Oncorhynchus mykiss
Method: The following description provides an example of a method for long-term testing of RTgill-W1 fluidic biochips according to an embodiment of the invention. In order to study the effects of cold storage with no media replenishment on the viability and sensitivity of the RTgill-W1 cells, fluidic biochips are seeded, held at 20° C., and media changes are performed on days 4 and 7 as described above, then held at 6° C. with no media replenishment for up to one year. Three chips are removed for viability assessment and ECIS testing using the 9.4 μM detection level for PCP (FIG. 1) at 4, 8, 12, 16, 20, 24, 32, 38, and 52 weeks and the chemical exposure procedure described above.
The following description provides an example of a method for statistical analysis according to an embodiment of the invention. A curve discrimination program using MATLAB (available from The MathWorks, Inc., Natick, Mass.) is used to perform the statistical analysis. […] This program analyzes impedance data from control and toxicant-exposed cells every minute during a 60 minute window. The overall difference between the two groups of curves is compared at each time point, and the difference between their averages is assessed relative to the within-group variability. A confidence level of […] (p<0.001) is used to establish statistical significance. Functional data analysis techniques are used to extend the standard single time point analysis of variance approach to a curve consisting of approximately 60 points. The lowest toxicant concentrations that cause a significant change in impedance in at least ten consecutive time intervals over a 60 minute period are reported as the detection levels in FIG. 1.
Unfed RTgill-W1 cells are maintained at 6° C. for different durations and subsequently tested with PCP exposures at 9.4 μM. […] The line with triangle data points and the line with square data points show, respectively, 1-hour and 4-hour average of response difference between the control and treatment channels at each respective storage time for 3 replicate fluidic biochips. Significance at each time point (p<0.001) is depicted by an * and requires a positive detection for all 3 replicate chips using the curve discrimination program. […] If the impedance patterns shown for the 12° C. and 20° C. chips are predictive indicators of the impedance patterns of the 6° C. chips, the 6° C. chips may remain viable for approximately 18 months, but most likely not beyond 2 years of storage.
With `Oc1c(Cl)c(Cl)c(Cl)c(Cl)c1Cl` [pentachlorophenate, sodium pentachlorophenate] the “responsiveness after one year storage” value was “significantly responsive”.

Same assay, conditions: 9.4 μM; chips stored at 6° C. unfed; all storage time points indicated
In the case of `Oc1c(Cl)c(Cl)c(Cl)c(Cl)c1Cl` [pentachlorophenate, sodium pentachlorophenate], the “response to PCP exposure” value is reported as “positive response”.

Same assay, conditions: 9.4 μM; storage at 6° C.; additional at 140 and 266 days; p<0.001, 3 replicate chips
For `Oc1c(Cl)c(Cl)c(Cl)c(Cl)c1Cl` [pentachlorophenate, sodium pentachlorophenate], the “significance of response, 4 hours exposure” value was “significant responses”.

Same assay, conditions: 9.4 μM; storage at 6° C.; time points of 14-114 days and 364 days; p<0.001, 3 replicate chips
With `Oc1c(Cl)c(Cl)c(Cl)c(Cl)c1Cl` [pentachlorophenate, sodium pentachlorophenate] the “significance of response, 1 hour exposure” value was “significant”.
